The nature of data set [1]: Oral bioavailability in rat. It counts as ADME, organism-based. Conditions: in vivo.
The nature of data set [2]: Half life in iv dosed dog. Particulars: in vivo. In kind it is ADME, organism-based, Canis lupus familiaris.
Data set [3] in a line: Clearance in dog at 1 mg/kg, iv. Also noted: dose 1 mg/kg, route intravenous. Conditions: in vivo. It counts as ADME, organism-based, Canis lupus familiaris.
Data set [4] can be described thus: Cmax in rat at 30 mg/kg, po. Conditions: in vivo. Also noted: dose 30 mg/kg, route oral. In kind it is ADME, organism-based.
Data set [5] is described as follows: Metabolic stability in rat liver microsomes after 10 mins. In kind it is ADME, Microsome. Particulars: read-out: Stability.
The nature of data set [6]: Bioavailability in dog at 10 mg/kg, po. Particulars: in vivo. It counts as ADME, organism-based, Canis lupus familiaris.
Data set [7] is described as follows: Bioavailability in rat at 30 mg/kg, po. In kind it is ADME, organism-based. Particulars: in vivo.
Data set [8] in a line: Cmax in dog at 10 mg/kg, po. In kind it is ADME, organism-based, Canis lupus familiaris. Also noted: dose 10 mg/kg, route oral. Particulars: in vivo.
Data set [9] can be described thus: Clearance in rat at 3 mg/kg, iv. Also noted: dose 3 mg/kg, route intravenous. In kind it is ADME, organism-based. Particulars: in vivo.
Data set [10] can be described thus: Half life in rat at 30 mg/kg, po. In kind it is ADME, organism-based. Also noted: dose 30 mg/kg, route oral. Conditions: in vivo.
The nature of data set [11]: Half life in dog at 1 mg/kg, iv. It counts as ADME, organism-based, Canis lupus familiaris. On the set-up: dose 1 mg/kg, route intravenous. Particulars: in vivo.
Data set [12] can be described thus: Half life in rat at 3 mg/kg, iv. Also noted: dose 3 mg/kg, route intravenous. In kind it is ADME, organism-based. Particulars: in vivo.
Data set [13] is described as follows: Volume of distribution at steady state in dog at 1 mg/kg, iv. In kind it is ADME, organism-based, Canis lupus familiaris. On the set-up: dose 1 mg/kg, route intravenous. Conditions: in vivo, read-out: Vdss.
Data set [14] is described as follows: Volume of distribution at steady state in rat at 3 mg/kg, iv. In kind it is ADME, organism-based. Also noted: dose 3 mg/kg, route intravenous. Conditions: in vivo, read-out: Vdss.
Data set [15] is described as follows: Half life in dog at 10 mg/kg, po. In kind it is ADME, organism-based, Canis lupus familiaris. Also noted: dose 10 mg/kg, route oral. Particulars: in vivo.
The nature of data set [16]: Oral bioavailability in dog. Particulars: in vivo. In kind it is ADME, organism-based, Canis lupus familiaris.
The nature of data set [17]: Metabolic stability in human liver microsomes after 10 mins. It counts as ADME, Microsome. Particulars: read-out: Stability.
The nature of data set [18]: Bioavailability in rat at 10 mg/kg, po. It counts as ADME, organism-based. Particulars: in vivo.
Data set [19] can be described thus: Cmax in rat at 10 mg/kg, po. In kind it is ADME, organism-based. Conditions: in vivo. On the set-up: dose 10 mg/kg, route oral.
Data set [20] in a line: Metabolic stability in dog liver microsomes after 10 mins. In kind it is ADME, Canis lupus familiaris, Microsome. Particulars: read-out: Stability.
Data set [21] can be described thus: Clearance in rat at 2 mg/kg, iv. In kind it is ADME, organism-based. Conditions: in vivo. Also noted: dose 2 mg/kg, route intravenous.
Data set [22] can be described thus: Volume of distribution at steady state in rat at 2 mg/kg, iv. In kind it is ADME, organism-based. Also noted: dose 2 mg/kg, route intravenous. Particulars: in vivo, read-out: Vdss.
Data set [23] in a line: Half life in rat at 2 mg/kg, iv. On the set-up: dose 2 mg/kg, route intravenous. It counts as ADME, organism-based. Particulars: in vivo.
The nature of data set [24]: Cmax in po dosed dog. Also noted: route oral. Particulars: in vivo. It counts as ADME, organism-based, Canis lupus familiaris.

Some results are limits rather than exact numbers.

A word on the bioavailability: it is dose-corrected exposure relative to a reference, in per cent. For orientation: half-life means how long it takes for the measured level to halve. Read a low half-life as fast loss. `CCCN(Cc1ccoc1)C(=O)c1cc(C)cc(OCC2(CON=C(N)N)CC2)c1` returned a bioavailability in data set [1] of 24%. Also, in data set [2], the half-life is 4.4 h.
As usually defined, the clearance is the rate of elimination divided by the concentration. A higher clearance goes with efficient removal. A word on the Cmax: it is the peak of the concentration-time curve. Regarding `Cc1ccc(C(F)(F)CNc2ccc(C#N)c(CC(=O)NCCONC(=N)N)c2F)nc1`, the clearance in data set [3] was 18 mL/min/kg; in [9] it was 30 mL/min/kg. The Cmax is 250 nM in data set [4] and 2800 nM in data set [8]. Besides, the remaining at 10 min in data set [5] was more than 95%. For the same compound, the values for the bioavailability in data set [6] and in data set [7] were 45% and 2%, respectively. Also, the half-life in data set [10] is 2.5 h; in data set [11], 3.6 h; in data set [12], 1.3 h; in data set [15], 2.5 h. Also, the results for the Vd in [13] and in data set [14] were 3.6 L/kg and 2.3 L/kg, respectively.
Consider `Cc1cccc(S(=O)(=O)Nc2ccc(C)n(CC(=O)NCCONC(=N)N)c2=O)c1`, for which the bioavailability came out at 24% in data set [16] and 6% in data set [1].
Consider `N#Cc1ccc(NCC(F)(F)c2ccccn2)c(F)c1CC(=O)NCCONC(=N)N`, for which the clearance was 13 mL/min/kg in [3] and 67 mL/min/kg in data set [21]. Further, the remaining at 10 min in [17] is not below 86%; in data set [5] it was more than 95%; in data set [20], not below 86%. For the same compound, the results for the bioavailability in [18] and in data set [6] were 2% and 49%, respectively. The Cmax in data set [19] is 30 nM; in [8], 3500 nM. Moreover, the values for the Vd in data set [22] and in data set [13] were 6 L/kg and 2.9 L/kg, respectively. For the same compound, the values for the half-life in [23], in data set [11] and in data set [15] were 1 h, 2.9 h and 2.5 h, respectively.
`Cc1nc(N)ccc1CNC(=O)Cc1c(C#N)ccc(NCC(F)(F)c2ccccn2)c1F`: the clearance in [3] is 34 mL/min/kg. Further, the remaining at 10 min in data set [20] was 100%. The bioavailability in data set [6] was 26%. Moreover, the half-life in [2] is 1.1 h. Also, in data set [24], the Cmax came out at 800 nM.
Take `Cc1cccc(C(F)(F)CNc2ccc(C#N)c(CC(=O)NCCONC(=N)N)c2F)n1`: in data set [3], the clearance is 15 mL/min/kg. The compound also showed a bioavailability in [6] of 65%. For the same compound, the highest level in data set [8] (Cmax) was 3300 nM. The figures for the half-life in [11] and in data set [15] were 2.8 h and 3.2 h, respectively. Moreover, the Vd in data set [13] amounted to 2.9 L/kg.

Source of the values: ChEMBL document CHEMBL1145621, “Orally efficacious thrombin inhibitors with cyanofluorophenylacetamide as the P2 motif” (Bioorg Med Chem Lett, 2008).
